Assay results taken from ChEMBL document CHEMBL5723582, “Data for DCP probe T-10430” (2024).

Tests used:
Settings in all cases: Compound concentration 1.0 uM
[1] = molecular target: Parathyroid hormone 2 receptor (Homo sapiens) (UniProt P49190); assay: RLU of PTH2R at 1.0 µM in the […] PRESTO-Tango GPCRome screen
[2] = molecular target: C-C chemokine receptor type 4 (Homo sapiens) (UniProt P51679); assay: RLU of CCR4 at 1.0 µM in the […] PRESTO-Tango GPCRome screen
[3] = molecular target: Somatostatin receptor type 5 (Homo sapiens) (UniProt P35346); assay: RLU of SSTR5 at 1.0 µM in the […] PRESTO-Tango GPCRome screen
[4] = molecular target: Prostaglandin F2-alpha receptor (Homo sapiens) (UniProt P43088); assay: RLU of PTGFR at 1.0 µM in the […] PRESTO-Tango GPCRome screen
[5] = molecular target: D(1B) dopamine receptor (Homo sapiens) (UniProt P21918); assay: RLU of DRD5 at 1.0 µM in the […] PRESTO-Tango GPCRome screen
[6] = molecular target: Adhesion G protein-coupled receptor A2 (Homo sapiens) (UniProt Q96PE1); assay: RLU of GPR124 at 1.0 µM in the […] PRESTO-Tango GPCRome screen
[7] = molecular target: P2Y purinoceptor 4 (Homo sapiens) (UniProt P51582); assay: RLU of P2RY4 at 1.0 µM in the […] PRESTO-Tango GPCRome screen
[8] = molecular target: Muscarinic acetylcholine receptor M5 (Homo sapiens) (UniProt P08912); assay: RLU of CHRM5 at 1.0 µM in the […] PRESTO-Tango GPCRome screen
[9] = molecular target: Putative adhesion G protein-coupled receptor F2P (Homo sapiens) (UniProt Q8IZF7); assay: RLU of GPR111 at 1.0 µM in the […] PRESTO-Tango GPCRome screen
[10] = molecular target: Muscarinic acetylcholine receptor M1 (Homo sapiens) (UniProt P11229); assay: RLU of CHRM1 at 1.0 µM in the […] PRESTO-Tango GPCRome screen
[11] = molecular target: Lysophosphatidic acid receptor 2 (Homo sapiens) (UniProt Q9HBW0); assay: RLU of LPAR2 at 1.0 µM in the […] PRESTO-Tango GPCRome screen
[12] = molecular target: 5-hydroxytryptamine receptor 7 (Homo sapiens) (UniProt P34969); assay: RLU of HTR7 at 1.0 µM in the […] PRESTO-Tango GPCRome screen
[13] = molecular target: Adhesion G-protein coupled receptor F1 (Homo sapiens) (UniProt Q5T601); assay: RLU of GPR110 at 1.0 µM in the […] PRESTO-Tango GPCRome screen
[14] = molecular target: Trace amine-associated receptor 1 (Homo sapiens) (UniProt Q96RJ0); assay: RLU of TA1 at 1.0 µM in the […] PRESTO-Tango GPCRome screen
[15] = molecular target: Mas-related G-protein coupled receptor member E (Homo sapiens) (UniProt Q86SM8); assay: RLU of MRGPRE at 1.0 µM in the […] PRESTO-Tango GPCRome screen
[16] = molecular target: Adhesion G protein-coupled receptor F4 (Homo sapiens) (UniProt Q8IZF3); assay: RLU of GPR115 at 1.0 µM in the […] PRESTO-Tango GPCRome screen
[17] = molecular target: Melanocortin receptor 3 (Homo sapiens) (UniProt P41968); assay: RLU of MC3R at 1.0 µM in the […] PRESTO-Tango GPCRome screen
[18] = molecular target: G-protein coupled receptor family C group 5 member B (Homo sapiens) (UniProt Q9NZH0); assay: RLU of GPRC5B at 1.0 µM in the […] PRESTO-Tango GPCRome screen
[19] = molecular target: G-protein coupled receptor 22 (Homo sapiens) (UniProt Q99680); assay: RLU of GPR22 at 1.0 µM in the […] PRESTO-Tango GPCRome screen
[20] = molecular target: fMet-Leu-Phe receptor (Homo sapiens) (UniProt P21462); assay: RLU of FPR1 at 1.0 µM in the […] PRESTO-Tango GPCRome screen
[21] = molecular target: Mas-related G-protein coupled receptor member X4 (Homo sapiens) (UniProt Q96LA9); assay: RLU of MRGPRX4 at 1.0 µM in the […] PRESTO-Tango GPCRome screen
[22] = molecular target: Hydroxycarboxylic acid receptor 3 (Homo sapiens) (UniProt P49019); assay: RLU of HCA3 at 1.0 µM in the Aequorin PRESTO-Tango GPCRome screen
[23] = molecular target: Neuromedin-B receptor (Homo sapiens) (UniProt P28336); assay: RLU of NMBR at 1.0 µM in the […] PRESTO-Tango GPCRome screen
[24] = molecular target: Lutropin-choriogonadotropic hormone receptor (Homo sapiens) (UniProt P22888); assay: RLU of LHCGR at 1.0 µM in the […] PRESTO-Tango GPCRome screen
[25] = molecular target: G-protein coupled receptor 26 (Homo sapiens) (UniProt Q8NDV2); assay: RLU of GPR26 at 1.0 µM in the […] PRESTO-Tango GPCRome screen
[26] = molecular target: Extracellular calcium-sensing receptor (Homo sapiens) (UniProt P41180); assay: RLU of CASR at 1.0 µM in the […] PRESTO-Tango GPCRome screen
[27] = molecular target: C-C chemokine receptor type 2 (Homo sapiens) (UniProt P41597); assay: RLU of CCR2 at 1.0 µM in the […] PRESTO-Tango GPCRome screen
[28] = molecular target: Metabotropic glutamate receptor 7 (Homo sapiens) (UniProt Q14831); assay: RLU of GRM7 at 1.0 µM in the Aequorin PRESTO-Tango GPCRome screen
[29] = molecular target: C-X-C chemokine receptor type 2 (Homo sapiens) (UniProt P25025); assay: RLU of CXCR2 at 1.0 µM in the […] PRESTO-Tango GPCRome screen
[30] = molecular target: KiSS-1 receptor (Homo sapiens) (UniProt Q969F8); assay: RLU of KISSPEPTIN at 1.0 µM in the […] PRESTO-Tango GPCRome screen
[31] = molecular target: Relaxin receptor 1 (Homo sapiens) (UniProt Q9HBX9); assay: RLU of RXFP1 at 1.0 µM in the […] PRESTO-Tango GPCRome screen
[32] = molecular target: Uracil nucleotide/cysteinyl leukotriene receptor (Homo sapiens) (UniProt Q13304); assay: RLU of GPR17 at 1.0 µM in the […] PRESTO-Tango GPCRome screen
[33] = molecular target: Probable G-protein coupled receptor 142 (Homo sapiens) (UniProt Q7Z601); assay: RLU of GPR142 at 1.0 µM in the […] PRESTO-Tango GPCRome screen
[34] = molecular target: G-protein coupled receptor 52 (Homo sapiens) (UniProt Q9Y2T5); assay: RLU of GPR52 at 1.0 µM in the […] PRESTO-Tango GPCRome screen
[35] = molecular target: D(2) dopamine receptor (Homo sapiens) (UniProt P14416); assay: RLU of DRD2 at 1.0 µM in the […] PRESTO-Tango GPCRome screen

Muscarinic acetylcholine receptor M5 (Homo sapiens), sequence (P08912 whole entry): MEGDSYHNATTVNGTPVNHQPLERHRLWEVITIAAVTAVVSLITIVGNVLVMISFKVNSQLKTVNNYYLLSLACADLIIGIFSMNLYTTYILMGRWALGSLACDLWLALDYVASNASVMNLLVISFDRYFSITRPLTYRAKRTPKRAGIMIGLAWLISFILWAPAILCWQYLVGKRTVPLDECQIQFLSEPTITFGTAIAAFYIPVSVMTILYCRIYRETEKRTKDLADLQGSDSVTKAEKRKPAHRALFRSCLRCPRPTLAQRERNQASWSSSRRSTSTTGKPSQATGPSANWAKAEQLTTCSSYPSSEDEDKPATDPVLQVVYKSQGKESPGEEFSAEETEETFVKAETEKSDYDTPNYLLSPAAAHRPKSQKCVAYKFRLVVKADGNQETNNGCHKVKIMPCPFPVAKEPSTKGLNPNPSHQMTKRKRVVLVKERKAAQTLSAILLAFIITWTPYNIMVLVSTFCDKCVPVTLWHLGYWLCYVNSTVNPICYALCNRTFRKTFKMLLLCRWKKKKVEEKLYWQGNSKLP
C-X-C chemokine receptor type 2 (Homo sapiens), sequence (P25025 whole entry): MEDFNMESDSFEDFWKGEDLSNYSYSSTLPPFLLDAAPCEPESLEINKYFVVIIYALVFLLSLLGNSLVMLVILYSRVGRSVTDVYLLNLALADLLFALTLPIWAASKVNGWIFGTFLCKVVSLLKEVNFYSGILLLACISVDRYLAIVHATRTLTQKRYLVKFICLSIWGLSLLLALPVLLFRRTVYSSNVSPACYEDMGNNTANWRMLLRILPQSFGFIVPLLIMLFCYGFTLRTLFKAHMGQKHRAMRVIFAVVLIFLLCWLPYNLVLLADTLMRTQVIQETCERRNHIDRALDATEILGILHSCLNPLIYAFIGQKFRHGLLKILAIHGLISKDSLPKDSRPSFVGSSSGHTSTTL
Prostaglandin F2-alpha receptor (Homo sapiens), sequence (P43088 whole entry): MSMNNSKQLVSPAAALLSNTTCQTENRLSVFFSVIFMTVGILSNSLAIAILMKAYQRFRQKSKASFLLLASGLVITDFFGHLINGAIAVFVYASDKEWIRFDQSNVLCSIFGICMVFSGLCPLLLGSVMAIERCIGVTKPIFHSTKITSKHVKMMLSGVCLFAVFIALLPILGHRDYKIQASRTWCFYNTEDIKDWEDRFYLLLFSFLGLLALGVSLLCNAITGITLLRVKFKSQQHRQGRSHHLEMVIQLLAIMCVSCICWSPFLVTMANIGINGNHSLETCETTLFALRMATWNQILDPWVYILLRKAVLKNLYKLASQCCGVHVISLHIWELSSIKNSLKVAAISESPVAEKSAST
Adhesion G protein-coupled receptor A2 (Homo sapiens), sequence (Q96PE1 whole entry): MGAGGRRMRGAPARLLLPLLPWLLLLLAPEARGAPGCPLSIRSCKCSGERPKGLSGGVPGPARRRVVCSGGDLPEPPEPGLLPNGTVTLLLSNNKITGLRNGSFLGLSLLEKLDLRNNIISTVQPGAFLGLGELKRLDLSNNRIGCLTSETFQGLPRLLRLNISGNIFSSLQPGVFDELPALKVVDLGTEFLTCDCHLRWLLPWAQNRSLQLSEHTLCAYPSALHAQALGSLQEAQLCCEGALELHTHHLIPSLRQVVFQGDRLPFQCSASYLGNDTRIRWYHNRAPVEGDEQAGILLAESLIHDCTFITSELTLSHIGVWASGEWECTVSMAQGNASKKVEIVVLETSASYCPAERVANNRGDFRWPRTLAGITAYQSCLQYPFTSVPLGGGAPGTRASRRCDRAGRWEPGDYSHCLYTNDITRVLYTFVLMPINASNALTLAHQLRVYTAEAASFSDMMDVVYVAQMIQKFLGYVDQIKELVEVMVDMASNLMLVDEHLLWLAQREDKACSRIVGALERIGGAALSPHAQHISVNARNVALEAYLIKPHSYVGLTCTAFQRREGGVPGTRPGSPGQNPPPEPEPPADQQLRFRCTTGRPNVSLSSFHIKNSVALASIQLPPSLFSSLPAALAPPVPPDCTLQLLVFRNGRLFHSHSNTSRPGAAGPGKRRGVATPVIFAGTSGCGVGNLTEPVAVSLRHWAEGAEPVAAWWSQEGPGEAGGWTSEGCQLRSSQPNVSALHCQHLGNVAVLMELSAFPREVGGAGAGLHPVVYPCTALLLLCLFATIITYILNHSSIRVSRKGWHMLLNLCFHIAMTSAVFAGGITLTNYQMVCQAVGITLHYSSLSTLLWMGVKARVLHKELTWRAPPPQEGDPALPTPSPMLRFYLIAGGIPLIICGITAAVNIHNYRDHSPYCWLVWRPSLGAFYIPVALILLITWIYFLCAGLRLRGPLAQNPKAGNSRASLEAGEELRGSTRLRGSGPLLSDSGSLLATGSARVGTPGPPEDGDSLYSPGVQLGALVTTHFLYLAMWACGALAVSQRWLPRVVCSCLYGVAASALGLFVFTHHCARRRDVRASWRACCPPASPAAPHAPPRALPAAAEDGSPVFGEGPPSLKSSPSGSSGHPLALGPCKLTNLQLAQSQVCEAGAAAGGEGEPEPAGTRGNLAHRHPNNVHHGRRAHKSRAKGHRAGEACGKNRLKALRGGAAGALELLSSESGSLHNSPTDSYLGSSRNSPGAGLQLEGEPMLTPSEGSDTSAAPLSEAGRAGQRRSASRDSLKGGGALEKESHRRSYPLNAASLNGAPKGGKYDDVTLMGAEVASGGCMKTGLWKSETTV
Adhesion G-protein coupled receptor F1 (Homo sapiens), sequence (Q5T601 20-566 limits assumed): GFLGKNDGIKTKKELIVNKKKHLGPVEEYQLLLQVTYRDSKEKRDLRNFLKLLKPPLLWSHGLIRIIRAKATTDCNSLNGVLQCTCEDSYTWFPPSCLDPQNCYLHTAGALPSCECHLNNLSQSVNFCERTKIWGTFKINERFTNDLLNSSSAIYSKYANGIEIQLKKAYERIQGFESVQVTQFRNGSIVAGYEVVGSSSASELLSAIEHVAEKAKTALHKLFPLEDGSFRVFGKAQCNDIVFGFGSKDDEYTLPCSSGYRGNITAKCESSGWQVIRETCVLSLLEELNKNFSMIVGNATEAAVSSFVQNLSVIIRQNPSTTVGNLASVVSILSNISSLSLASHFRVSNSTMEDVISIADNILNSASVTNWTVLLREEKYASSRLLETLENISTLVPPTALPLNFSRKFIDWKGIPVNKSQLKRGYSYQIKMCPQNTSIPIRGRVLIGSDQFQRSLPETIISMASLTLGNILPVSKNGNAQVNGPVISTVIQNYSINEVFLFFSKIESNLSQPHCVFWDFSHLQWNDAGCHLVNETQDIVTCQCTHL
Adhesion G-protein coupled receptor F1 (Homo sapiens), sequence (Q5T601 567-910 limits assumed): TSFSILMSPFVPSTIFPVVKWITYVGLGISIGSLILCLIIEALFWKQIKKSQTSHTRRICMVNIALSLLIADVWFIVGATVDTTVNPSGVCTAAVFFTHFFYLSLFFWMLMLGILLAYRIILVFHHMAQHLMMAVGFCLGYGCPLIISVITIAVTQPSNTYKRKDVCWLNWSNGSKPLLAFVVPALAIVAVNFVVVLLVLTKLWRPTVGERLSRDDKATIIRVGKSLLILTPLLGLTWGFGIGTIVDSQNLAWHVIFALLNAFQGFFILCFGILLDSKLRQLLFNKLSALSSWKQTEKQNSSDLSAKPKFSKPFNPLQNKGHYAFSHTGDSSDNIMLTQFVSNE
Parathyroid hormone 2 receptor (Homo sapiens), sequence (P49190 whole entry): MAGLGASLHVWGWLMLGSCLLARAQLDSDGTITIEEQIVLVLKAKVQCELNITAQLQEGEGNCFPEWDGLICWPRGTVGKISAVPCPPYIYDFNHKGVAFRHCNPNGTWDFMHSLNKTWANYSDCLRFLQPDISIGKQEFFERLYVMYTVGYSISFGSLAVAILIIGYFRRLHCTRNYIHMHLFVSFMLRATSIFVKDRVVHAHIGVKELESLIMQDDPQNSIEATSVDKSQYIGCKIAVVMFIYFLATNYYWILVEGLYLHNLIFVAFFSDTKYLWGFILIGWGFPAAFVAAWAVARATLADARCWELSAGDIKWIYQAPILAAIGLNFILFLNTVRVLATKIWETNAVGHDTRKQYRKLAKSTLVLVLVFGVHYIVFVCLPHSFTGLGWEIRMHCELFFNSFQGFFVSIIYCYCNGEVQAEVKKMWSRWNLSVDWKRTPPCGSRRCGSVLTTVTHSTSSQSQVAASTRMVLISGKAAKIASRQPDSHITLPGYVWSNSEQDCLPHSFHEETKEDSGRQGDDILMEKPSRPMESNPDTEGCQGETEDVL
Probable G-protein coupled receptor 142 (Homo sapiens), sequence (Q7Z601 whole entry): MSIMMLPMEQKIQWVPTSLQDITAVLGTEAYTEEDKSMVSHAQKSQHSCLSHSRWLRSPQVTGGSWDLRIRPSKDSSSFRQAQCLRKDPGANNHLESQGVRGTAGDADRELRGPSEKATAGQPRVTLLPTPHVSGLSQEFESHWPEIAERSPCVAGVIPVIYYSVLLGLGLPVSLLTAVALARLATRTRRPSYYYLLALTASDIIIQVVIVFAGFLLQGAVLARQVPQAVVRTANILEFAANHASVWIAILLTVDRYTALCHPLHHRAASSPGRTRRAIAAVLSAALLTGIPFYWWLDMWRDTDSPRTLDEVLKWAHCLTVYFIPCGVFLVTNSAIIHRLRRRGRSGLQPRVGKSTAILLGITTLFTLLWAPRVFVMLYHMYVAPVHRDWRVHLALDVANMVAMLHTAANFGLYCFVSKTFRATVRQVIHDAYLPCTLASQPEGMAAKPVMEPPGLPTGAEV
D(1B) dopamine receptor (Homo sapiens), sequence (P21918 whole entry): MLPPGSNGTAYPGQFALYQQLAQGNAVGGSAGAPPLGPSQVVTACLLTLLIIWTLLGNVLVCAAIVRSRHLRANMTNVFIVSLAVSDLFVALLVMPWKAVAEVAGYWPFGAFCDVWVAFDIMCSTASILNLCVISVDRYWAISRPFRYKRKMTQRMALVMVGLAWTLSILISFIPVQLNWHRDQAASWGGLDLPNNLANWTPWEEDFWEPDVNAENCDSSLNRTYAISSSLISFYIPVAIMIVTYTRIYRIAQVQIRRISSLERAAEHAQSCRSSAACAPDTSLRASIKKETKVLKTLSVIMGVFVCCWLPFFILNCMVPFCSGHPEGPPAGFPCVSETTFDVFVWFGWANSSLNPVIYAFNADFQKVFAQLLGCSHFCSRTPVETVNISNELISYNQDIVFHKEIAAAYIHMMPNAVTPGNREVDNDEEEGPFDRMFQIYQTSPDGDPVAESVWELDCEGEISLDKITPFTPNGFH

CCCCC(=O)N1CC2(C1)CN(c1ccccc1-c1nnn[nH]1)C2
RLU [1]: -1530 | RLU [2]: 6410 | RLU [3]: -946 | RLU [4]: -81.2 | RLU [5]: 856 | RLU [6]: -2920 | RLU [7]: -311 | RLU [8]: 7390 | RLU [9]: -1360 | RLU [10]: -2940 | RLU [11]: -80 | RLU [12]: -1000 | RLU [13]: 9360 | RLU [14]: 127 | RLU [15]: -3210 | RLU [16]: -283 | RLU [17]: 18.8 | RLU [18]: -3640 | RLU [19]: -1210 | RLU [20]: 3270 | RLU [21]: 3310 | RLU [22]: 1810 | RLU [23]: 937 | RLU [24]: 154 | RLU [25]: -187 | RLU [26]: 4400 | RLU [27]: 2850 | RLU [28]: 6950 | RLU [29]: -473 | RLU [30]: 2040 | RLU [31]: -1130 | RLU [32]: 897 | RLU [33]: 2920 | RLU [34]: 86500 | RLU [35]: 2200
